According to the supplement of paper PMC10307832:

Key:
Experiment in all cases: relative viability (nuclei count vs DMSO), 5 days (fraction); higher = more cells survive
AZD6482 + Pemetrexed = compound: Cc1cc([C@@H](C)Nc2ccccc2C(=O)O)c2nc(N3CCOCC3)cc(=O)n2c1 [AZD6482] + Nc1nc2[nH]cc(CCc3ccc(C(=O)N[C@@H](CCC(=O)O)C(=O)O)cc3)c2c(=O)[nH]1 [Pemetrexed] (partner 0.2 µM)
Procedure, shortened: (§1)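 Cells from lung cancer lines were seeded into 1536-well plates and, one day later, dosed by pin tool. Treatments were either a single drug or a fixed dose of an anchor drug with five library-drug doses (not always all listed) in √10 steps. After 5 days, nuclei were stained in a one-step fixation (final 0.05% Triton X-100, 1% formaldehyde, 1 ug/ml Hoechst) and counted on 4× images, and relative viability is the treated-to-vehicle nuclei ratio, as the median of duplicate plates.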

AZD6482 + Lapatinib = compound: Cc1cc([C@@H](C)Nc2ccccc2C(=O)O)c2nc(N3CCOCC3)cc(=O)n2c1 [AZD6482] + CS(=O)(=O)CCNCc1ccc(-c2ccc3ncnc(Nc4ccc(OCc5cccc(F)c5)c(Cl)c4)c3c2)o1 [Lapatinib] (partner 2 µM)
Procedure, shortened: as §1

AZD6482 + OSI-027 = compound: Cc1cc([C@@H](C)Nc2ccccc2C(=O)O)c2nc(N3CCOCC3)cc(=O)n2c1 [AZD6482] + COc1cccc2cc(-c3nc([C@H]4CC[C@H](C(=O)O)CC4)n4ncnc(N)c34)[nH]c12 [OSI-027] (partner 0.5 µM)
Procedure, shortened: as §1

[1] = compound: COc1cc2nc(N3CCCN(C)CC3)nc(NC3CCN(Cc4ccccc4)CC3)c2cc1OC + COc1cc2c(Oc3ccc(NC(=O)C4(C(=O)Nc5ccc(F)cc5)CC4)cc3F)ccnc2cc1OCCCN1CCOCC1 [Foretinib] (partner 0.25 µM)
Procedure, shortened: as §1

Row | Cell Line | relative viability (AZD6482 + Pemetrexed; first compound 0.08 µM) | relative viability (AZD6482 + Pemetrexed; first compound 0.253 µM) | relative viability (AZD6482 + Pemetrexed; first compound 0.8 µM) | relative viability (AZD6482 + Pemetrexed; first compound 2.53 µM) | relative viability (AZD6482 + Pemetrexed; first compound 8 µM) | relative viability (AZD6482 + Lapatinib; first compound 0.08 µM) | relative viability (AZD6482 + Lapatinib; first compound 0.253 µM) | relative viability (AZD6482 + Lapatinib; first compound 0.8 µM) | relative viability (AZD6482 + Lapatinib; first compound 2.53 µM) | relative viability (AZD6482 + Lapatinib; first compound 8 µM) | relative viability (AZD6482 + OSI-027; first compound 0.08 µM) | relative viability (AZD6482 + OSI-027; first compound 0.253 µM) | relative viability (AZD6482 + OSI-027; first compound 0.8 µM) | relative viability (AZD6482 + OSI-027; first compound 2.53 µM) | relative viability (AZD6482 + OSI-027; first compound 8 µM) | relative viability ([1]; first compound 0.2 µM) | relative viability ([1]; first compound 0.6325 µM) | relative viability ([1]; first compound 2 µM) | relative viability ([1]; first compound 6.325 µM)
1 | HCC-366 | 0.173 | 0.202 | 0.204 | 0.209 | 0.275 | 0.9 | 0.97 | 1.11 | 0.579 | 0.532 | 1.01 | 0.801 | 0.906 | 0.574 | 0.515 | 0.916 | 0.966 | 0.906 | 0.945
2 | HCC-827 | 0.251 | 0.254 | 0.245 | 0.245 | 0.238 | 0.164 | 0.174 | 0.196 | 0.177 | 0.177 | 0.709 | 0.658 | 0.8 | 0.451 | 0.48 | 1.06 | 1.12 | 1.05 | 1.02
3 | HOP-62 | 0.335 | 0.386 | 0.363 | 0.335 | 0.379 | 1.06 | 0.856 | 1.32 | 0.827 | 1.1 | 0.817 | 0.883 | 0.774 | 0.553 | 0.765 | 1.06 | 1.09 | 1.1 | 1.15
4 | IA-LM | – | – | – | – | – | 0.898 | 1.13 | 0.903 | – | 0.626 | – | – | – | – | – | 1.13 | 0.807 | 1.34 | 1.16
5 | LC-2-ad | 0.279 | 0.293 | 0.274 | 0.302 | 0.292 | 1.06 | 0.553 | 1.1 | 0.638 | 0.918 | 0.734 | 0.757 | 0.807 | 0.581 | 0.565 | 0.813 | 0.938 | 0.956 | 0.974
6 | LCLC-97TM1 | 0.15 | 0.166 | 0.164 | – | 0.162 | 1.04 | 1.01 | 1.28 | 0.271 | 0.462 | 0.482 | 0.399 | 0.384 | 0.255 | 0.312 | 0.951 | 0.994 | 0.913 | 0.844
7 | LCLC-103H | 0.491 | 0.506 | 0.49 | 0.462 | 0.456 | – | – | – | – | – | 0.414 | 0.452 | 0.492 | 0.273 | 0.31 | 0.826 | 0.857 | 0.825 | 0.772
8 | LK-2 | 0.276 | 0.276 | 0.263 | 0.193 | 0.176 | 1.13 | 0.645 | 0.959 | 0.767 | 0.815 | 0.222 | 0.2 | 0.177 | 0.196 | 0.177 | 1.49 | 0.932 | 1.13 | 1.12
9 | LOU-NH91 | 0.376 | 0.373 | 0.444 | 0.521 | 0.493 | 0.626 | 0.752 | 0.681 | 0.501 | 0.494 | 0.606 | 0.702 | 0.66 | 0.455 | 0.579 | 0.933 | 0.996 | 0.866 | 0.993
